Literature values in patent US7776366B2, “Method and nutraceutical composition for mammals” (MD's Choice, Inc., priority 2002, dated 2010).

Details: within 30 minutes, in at least 3 species, via glucose transporter

N[C@H]1C(O)O[C@H](CO)[C@@H](O)[C@@H]1O.O=S(=O)(O)O (stereo partly shown) [Glucosamine sulphate]
efficiency of active absorption from the digestive tract: over 90%
